Columns and labels:
Assay in all cases: single sensillum recording of the wild-type OSN expressing the receptor
Ir31a = biological target: T1, Ir31a (Drosophila melanogaster, UniProt Q8IPB8); settings: agonist (best ligand); odorant dilution 10^-1 in hexane, 0.5 s stimulus
T1 construct: native full-length ionotropic receptor in olfactory sensory neurons of wild-type flies (single sensillum recording); with Ionotropic receptor 8a
T1 sequence (Q8IPB8 18-629): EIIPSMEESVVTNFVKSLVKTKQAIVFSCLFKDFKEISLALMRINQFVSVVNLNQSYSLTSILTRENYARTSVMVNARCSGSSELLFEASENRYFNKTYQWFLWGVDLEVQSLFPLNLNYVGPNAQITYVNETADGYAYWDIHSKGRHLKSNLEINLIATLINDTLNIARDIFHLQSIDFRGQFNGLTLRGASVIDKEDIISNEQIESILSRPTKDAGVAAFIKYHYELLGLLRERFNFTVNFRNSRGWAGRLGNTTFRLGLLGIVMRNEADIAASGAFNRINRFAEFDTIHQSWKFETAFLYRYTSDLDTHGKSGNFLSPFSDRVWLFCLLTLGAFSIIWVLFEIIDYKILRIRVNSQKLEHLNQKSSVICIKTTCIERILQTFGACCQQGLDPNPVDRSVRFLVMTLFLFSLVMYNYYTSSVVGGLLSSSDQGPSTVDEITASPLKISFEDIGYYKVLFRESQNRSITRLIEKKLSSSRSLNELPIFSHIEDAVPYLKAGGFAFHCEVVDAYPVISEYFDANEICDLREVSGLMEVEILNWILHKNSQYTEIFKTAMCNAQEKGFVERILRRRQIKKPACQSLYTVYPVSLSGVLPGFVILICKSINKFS
T1 sequence (Q9W365 18-936 partner): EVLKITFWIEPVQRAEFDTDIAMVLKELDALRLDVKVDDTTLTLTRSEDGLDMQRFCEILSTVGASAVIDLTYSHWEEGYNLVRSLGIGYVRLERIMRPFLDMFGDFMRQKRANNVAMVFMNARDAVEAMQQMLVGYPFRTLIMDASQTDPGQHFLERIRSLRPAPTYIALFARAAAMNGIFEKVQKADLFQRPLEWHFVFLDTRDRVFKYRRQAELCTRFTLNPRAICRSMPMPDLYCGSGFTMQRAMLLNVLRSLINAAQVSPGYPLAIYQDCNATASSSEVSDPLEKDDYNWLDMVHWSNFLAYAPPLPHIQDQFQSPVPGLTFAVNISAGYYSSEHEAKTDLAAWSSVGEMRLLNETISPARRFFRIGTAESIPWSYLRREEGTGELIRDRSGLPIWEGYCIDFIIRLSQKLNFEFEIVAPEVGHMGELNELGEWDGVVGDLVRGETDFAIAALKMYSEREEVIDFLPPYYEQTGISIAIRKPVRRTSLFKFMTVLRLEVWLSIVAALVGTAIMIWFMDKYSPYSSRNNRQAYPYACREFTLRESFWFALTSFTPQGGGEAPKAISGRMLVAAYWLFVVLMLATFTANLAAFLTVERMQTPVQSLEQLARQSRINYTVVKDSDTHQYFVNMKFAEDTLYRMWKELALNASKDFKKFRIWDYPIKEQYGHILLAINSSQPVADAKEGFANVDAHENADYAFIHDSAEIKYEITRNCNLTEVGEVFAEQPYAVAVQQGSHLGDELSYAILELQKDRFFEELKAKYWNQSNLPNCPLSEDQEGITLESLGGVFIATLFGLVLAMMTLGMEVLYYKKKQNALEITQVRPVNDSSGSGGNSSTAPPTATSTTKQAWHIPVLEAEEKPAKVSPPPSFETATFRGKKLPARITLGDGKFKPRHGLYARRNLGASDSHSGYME

Or22a = biological target: T2, Or22a (Drosophila melanogaster, UniProt P81909); settings: agonist; odorant dilution 10^-1 in hexane, 0.5 s stimulus
T2 construct: native full-length receptor in olfactory sensory neurons (ab3A) of wild-type flies; Or22b may be co-expressed; with Odorant receptor coreceptor
T2 sequence (P81909 1-397): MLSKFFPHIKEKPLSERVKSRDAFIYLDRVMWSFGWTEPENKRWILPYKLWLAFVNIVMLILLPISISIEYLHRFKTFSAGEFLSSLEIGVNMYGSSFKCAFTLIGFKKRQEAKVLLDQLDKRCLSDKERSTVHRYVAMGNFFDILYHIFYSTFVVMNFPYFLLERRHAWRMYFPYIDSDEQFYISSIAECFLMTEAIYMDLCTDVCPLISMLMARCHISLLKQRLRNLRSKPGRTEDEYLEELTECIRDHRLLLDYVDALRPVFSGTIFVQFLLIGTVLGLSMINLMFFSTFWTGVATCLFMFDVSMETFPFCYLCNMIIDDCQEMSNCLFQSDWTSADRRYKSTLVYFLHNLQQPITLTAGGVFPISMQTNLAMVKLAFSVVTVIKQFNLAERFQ
T2 sequence (Q9VNB5 1-486 partner): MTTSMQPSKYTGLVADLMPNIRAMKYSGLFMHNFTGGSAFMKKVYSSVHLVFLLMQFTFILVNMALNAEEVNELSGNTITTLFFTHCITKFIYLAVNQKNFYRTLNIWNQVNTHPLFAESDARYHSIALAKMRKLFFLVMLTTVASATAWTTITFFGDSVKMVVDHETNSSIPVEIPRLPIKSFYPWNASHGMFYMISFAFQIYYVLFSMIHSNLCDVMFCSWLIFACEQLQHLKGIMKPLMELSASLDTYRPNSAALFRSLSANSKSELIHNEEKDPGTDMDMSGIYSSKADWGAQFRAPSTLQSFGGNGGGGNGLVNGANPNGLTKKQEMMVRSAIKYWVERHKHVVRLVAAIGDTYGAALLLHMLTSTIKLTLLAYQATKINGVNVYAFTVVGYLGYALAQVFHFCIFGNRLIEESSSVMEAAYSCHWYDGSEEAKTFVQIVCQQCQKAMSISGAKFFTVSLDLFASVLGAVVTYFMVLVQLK

Or19a = biological target: T3, Or19a (Drosophila melanogaster, UniProt Q9I816); settings: odorant dilution 10^-1 in hexane, 0.5 s stimulus
T3 construct: native full-length receptor in olfactory sensory neurons (ai2 sensillum) of wild-type flies; paralogue Or19b may be co-expressed; with Odorant receptor coreceptor
T3 sequence (Q9I816 1-387): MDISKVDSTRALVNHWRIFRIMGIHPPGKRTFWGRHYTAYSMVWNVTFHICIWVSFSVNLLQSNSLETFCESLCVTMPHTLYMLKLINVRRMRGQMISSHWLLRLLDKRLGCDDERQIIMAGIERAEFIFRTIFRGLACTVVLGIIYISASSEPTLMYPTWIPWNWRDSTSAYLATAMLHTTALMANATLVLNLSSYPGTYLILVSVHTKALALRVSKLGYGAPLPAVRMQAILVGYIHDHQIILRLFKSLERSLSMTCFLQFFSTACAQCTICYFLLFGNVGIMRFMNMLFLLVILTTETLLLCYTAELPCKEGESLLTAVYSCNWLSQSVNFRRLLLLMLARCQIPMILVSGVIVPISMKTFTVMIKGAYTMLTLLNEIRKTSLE
T3 sequence (Q9VNB5 1-486 partner): T2 sequence (Q9VNB5 1-486 partner)

Or49b = biological target: T4, Or49b (Drosophila melanogaster, UniProt Q9V6H2); settings: agonist (best ligand); odorant dilution 10^-1 in hexane, 0.5 s stimulus
T4 construct: native full-length receptor in olfactory sensory neurons (ab6B) of wild-type flies (single sensillum recording); with Odorant receptor coreceptor
T4 sequence (Q9V6H2 1-375): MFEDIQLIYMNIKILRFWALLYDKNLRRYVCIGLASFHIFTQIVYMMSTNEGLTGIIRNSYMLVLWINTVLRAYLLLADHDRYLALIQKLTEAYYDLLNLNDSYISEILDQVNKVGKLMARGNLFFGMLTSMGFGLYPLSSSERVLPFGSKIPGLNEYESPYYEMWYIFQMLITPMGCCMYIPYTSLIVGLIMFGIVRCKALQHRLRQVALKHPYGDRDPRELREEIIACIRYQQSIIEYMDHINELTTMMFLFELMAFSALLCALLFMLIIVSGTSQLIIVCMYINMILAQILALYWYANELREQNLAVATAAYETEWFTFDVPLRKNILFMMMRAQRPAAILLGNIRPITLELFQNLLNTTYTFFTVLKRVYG
T4 sequence (Q9VNB5 1-486 partner): T2 sequence (Q9VNB5 1-486 partner)

## CCCC(=O)C(=O)O [2-oxo-valeric acid]
Ir31a
  spikes/s: both being chemosensory receptors shown to be activated by stimulation with this odorant
Or22a
  spikes/s: both being chemosensory receptors shown to be activated by stimulation with this odorant
Or19a; printed as gated by the odorant, direction not told
  spikes/s: Or19a as an OR being gated by 2-oxo-valeric acid

## CC(=O)OC/C=C(\C)CCC=C(C)C [geranyl acetate]
Or19a; agonist
  spikes/s: OSNs expressing Or19a indeed become activated by high amounts of geranyl acetate

## COc1ccccc1O [guaiacol]
Or49b
  spikes/s: confirming the published ligand–receptor interaction of guaiacol and Or49b

Source: publication PMC6189519, “Evaluation of the DREAM Technique for a High-Throughput Deorphanization of Chemosensory Receptors in Drosophila” (Frontiers in Molecular Neuroscience, 2018)
